Here are results for five molecules from patent publication US3978071A, “Substituted phenylalkanoic acids and derivatives” (Yoshitomi Pharmaceutical Industries, Ltd., priority 1973, dated 1976).

The subject of test [1] is o-phenyl-p-benzoquinone induced stretch symptoms. Briefly: Analgesic Action (Phenylquinone Method). It is filed as in vivo, dd-strain male mice. The conditions noted are these: Mus musculus, po, mice, 1 hour before 0.02% o-phenyl-p-benzoquinone i.p., dose required for 50% inhibition of stretch symptoms (30 minutes). How it is done:
According to the method of Hendershot et al. (J. Pharmacol. Exptl. Therap., 125, 237 (1959)), to one group of 6 dd-strain male mice each weighing about 20 g a test solution containing a test compound was orally administered and 1 hour later 0.2 ml/20 g of body weight of 0.02% o-phenyl-p-benzoquinone solution was intraperitoneally injected. The frequency of stretch symptoms thus induced was measured for 30 minutes, and compared with that of a control group, and the inhibition percentage (effect) was calculated. The ED50 the dose required for 50% inhibition, was calculated from the dose-response curve.

For the next test, the system named is ultraviolet erythema. Briefly: Anti-inflammatory Action, Ultraviolet Erythema Method. Format: in vivo. The conditions noted are these: Cavia porcellus, light or radiation study, po, guinea pigs, equal amounts 1 hour before and after irradiation; total dose required for 50% efficacy rate. The source says:
ii. Ultraviolet Erythema Method:
Using guinea pigs weighing 250-450 g, a rubber plate with 3 holes of 7 mm in diameter was fitted to the abdomen, hair of which had been removed in advance, and light was given by a mercury lamp (300 W) at the distance of 15 cm for 150 seconds. Two hours later the degree of erythema formation was marked according to the method of Winder et al. (Arch. Intern. Pharmacodyn., 116, 261 (1958); 1 for distinct erythema, 0.5 for indistinct erythema and 0 for no erythema) and the efficacy rate was calculated, based on the criterion that 1.5 or less of total marks be effective. Equal amounts of the test solution were orally given 1 hour before and after the irradiation, respectively. The ED50, the total dose required for 50% efficacy rate, was calculated from the dose-response curve.

The subject of test [2] is carrageenin edema of the hind paw. Briefly: Anti-inflammatory Action, Carrageenin Edema Method. It is filed as in vivo, Donryu-strain male rats. The conditions noted are these: Rattus norvegicus, po, rats, 1 hour before 1% carrageenin s.c.; paw bulk 2 hours after phlogogen; dose required for 50% inhibition. How it is done: i. Carrageenin Edema Method
According to the method of Winter et al. (Proc. Soc. Exptl. Biol. Med., 111, 544 (1962)), to one group of 5 Donryu-strain male rats each weighing about 130 g a test solution containing a test compound was administered orally. One hour later 0.05 ml of 1% carrageenin solution as phlogogenic substance was subcutaneously injected to the paw of the hind leg. And 2 hours after the administration of phlogogen the bulk of the paw was measured in order to obtain the increment percentage over that before administration. The ratio of bulk increment between a control group and a test group was calculated as inhibition percentage. The ED50, the dose required for 50% inhibition, was calculated from the dose-response curve.
A general note: In the carrageenan paw model, swelling and tenderness develop within hours.

In general, ED50 refers to the midpoint of the dose-response relation. A high value points to weaker potency. As for `CC(C(=O)O)c1ccc(-c2cn3ccccc3n2)cc1` (stereo not drawn) [A, 2-[4-(imidazo[1,2-a]pyridin-2-yl)phenyl]propionic acid], the ED50 in test [1] is 0.1 mg/kg; in the test with ultraviolet erythema it was 6 mg/kg; in test [2], 8 mg/kg.

As for `CC(C(=O)O)c1ccc(-c2cn3ccccc3n2)c(Cl)c1` (stereo not drawn) [B, 2-[3-chloro-4-(imidazo[1,2-a]pyridin-2-yl)phenyl]propionic acid], the ED50 is 0.2 mg/kg in test [1], 1 mg/kg in the test with ultraviolet erythema and 25 mg/kg in test [2].

With `CC(C(=O)O)c1ccc(-c2cn3ccccc3n2)c(F)c1` (stereo not drawn) [C, 2-[3-fluoro-4-(imidazo[1,2-a]pyridin-2-yl)phenyl]propionic acid], the ED50 came to 0.1 mg/kg in test [1], 2.5 mg/kg with ultraviolet erythema and 25 mg/kg in test [2].

With `CC(C(=O)O)c1ccc(-c2cn3ccsc3n2)cc1` (stereo not drawn) [D, 2-[4-(imidazo[2,1-b]thiazol-6-yl)phenyl]propionic acid], the ED50 in test [1] was 13 mg/kg; in the test with ultraviolet erythema it was 2.5 mg/kg; in test [2] it was 50 mg/kg.

Regarding `CC(C(=O)O)c1ccc(-c2cn3ccsc3n2)c(Cl)c1` (stereo not drawn) [E, 2-[3-chloro-4-(imidazo[2,1-b]thiazol-6-yl)phenyl]propionic acid], the values for the ED50 (in test [1]; in the test on ultraviolet erythema; in test [2]) were 0.5 to 1 mg/kg, 5 mg/kg and 100 mg/kg, respectively.
